ChEMBL document CHEMBL5370535, “Thiazolyl hydrazineylidenyl indolones as unique potential multitargeting broad-spectrum antimicrobial agents” (Eur J Med Chem, 2023)
Converted amounts (≈) assume the structure as drawn.

Key:
Assay type in all cases: functional
Staphylococcus aureus [1] = experiment: Antibacterial activity against methicillin-resistant Staphylococcus aureus assessed as bacterial growth inhibition incubated for 24 hrs by CLSI based two serial dilution assay
Enterococcus faecalis = experiment: Antibacterial activity against Enterococcus faecalis assessed as bacterial growth inhibition incubated for 24 hrs by CLSI based two serial dilution assay
Staphylococcus aureus [2] = experiment: Antibacterial activity against Staphylococcus aureus assessed as bacterial growth inhibition incubated for 24 hrs by CLSI based two serial dilution assay
Staphylococcus aureus [3] = experiment: Antibacterial activity against Staphylococcus aureus 25923 assessed as bacterial growth inhibition incubated for 24 hrs by CLSI based two serial dilution assay
Staphylococcus aureus [4] = experiment: Antibacterial activity against Staphylococcus aureus 29213 assessed as bacterial growth inhibition incubated for 24 hrs by CLSI based two serial dilution assay
Klebsiella pneumoniae = experiment: Antibacterial activity against Klebsiella pneumoniae assessed as bacterial growth inhibition incubated for 24 hrs by CLSI based two serial dilution assay
Escherichia coli [5] = experiment: Antibacterial activity against Escherichia coli assessed as bacterial growth inhibition incubated for 24 hrs by CLSI based two serial dilution assay
Escherichia coli [6] = experiment: Antibacterial activity against Escherichia coli 25922 assessed as bacterial growth inhibition incubated for 24 hrs by CLSI based two serial dilution assay
Pseudomonas aeruginosa [7] = experiment: Antibacterial activity against Pseudomonas aeruginosa assessed as bacterial growth inhibition incubated for 24 hrs by CLSI based two serial dilution assay
Pseudomonas aeruginosa [8] = experiment: Antibacterial activity against Pseudomonas aeruginosa ATCC 27853 assessed as bacterial growth inhibition incubated for 24 hrs by CLSI based two serial dilution assay
Acinetobacter baumannii = experiment: Antibacterial activity against Acinetobacter baumannii assessed as bacterial growth inhibition incubated for 24 hrs by CLSI based two serial dilution assay
Candida albicans [9] = experiment: Antifungal activity against Candida albicans assessed as inhibition of fungal growth incubated for 24 hrs by CLSI based two serial dilution assay
Candida albicans [10] = experiment: Antifungal activity against Candida albicans ATCC 90023 assessed as inhibition of fungal growth incubated for 24 hrs by CLSI based two serial dilution assay
Candida tropicalis = experiment: Antifungal activity against Candida tropicalis assessed as inhibition of fungal growth incubated for 24 hrs by CLSI based two serial dilution assay
Candida parapsilosis = experiment: Antifungal activity against Candida parapsilosis ATCC 22019 assessed as inhibition of fungal growth incubated for 24 hrs by CLSI based two serial dilution assay; settings: Lodderomyces parapsilosis
Aspergillus fumigatus = experiment: Antifungal activity against Aspergillus fumigatus assessed as inhibition of fungal growth incubated for 24 hrs by CLSI based two serial dilution assay

Row | SMILES | MIC (Staphylococcus aureus [1]) [µM] | MIC (Enterococcus faecalis) [µM] | MIC (Staphylococcus aureus [2]) [µM] | MIC (Staphylococcus aureus [3]) [µM] | MIC (Staphylococcus aureus [4]) [µM] | MIC (Klebsiella pneumoniae) [µM] | MIC (Escherichia coli [5]) [µM] | MIC (Escherichia coli [6]) [µM] | MIC (Pseudomonas aeruginosa [7]) [µM] | MIC (Pseudomonas aeruginosa [8]) [µM] | MIC (Acinetobacter baumannii) [µM] | MIC (Candida albicans [9]) [µM] | MIC (Candida albicans [10]) [µM] | MIC (Candida tropicalis) [µM] | MIC (Candida parapsilosis) [µM] | MIC (Aspergillus fumigatus) [µM]
1 | CCCCN1C(=O)/C(=N\Nc2nccs2)c2c(Cl)cccc21 | 256 (≈ 85.7 µg/mL) | 128 (≈ 42.9 µg/mL) | 512 (≈ 171 µg/mL) | 512 (≈ 171 µg/mL) | 1 (≈ 0.335 µg/mL) | 1 (≈ 0.335 µg/mL) | 256 (≈ 85.7 µg/mL) | 512 (≈ 171 µg/mL) | 1 (≈ 0.335 µg/mL) | 128 (≈ 42.9 µg/mL) | 256 (≈ 85.7 µg/mL) | 256 (≈ 85.7 µg/mL) | 512 (≈ 171 µg/mL) | 128 (≈ 42.9 µg/mL) | 16 (≈ 5.36 µg/mL) | 256 (≈ 85.7 µg/mL)
2 | CCCCN1C(=O)/C(=N\Nc2nccs2)c2cc(Cl)ccc21 | 1 (≈ 0.335 µg/mL) | 32 (≈ 10.7 µg/mL) | 1 (≈ 0.335 µg/mL) | 1 (≈ 0.335 µg/mL) | 1 (≈ 0.335 µg/mL) | 0.5 (≈ 0.167 µg/mL) | 1 (≈ 0.335 µg/mL) | 0.5 (≈ 0.167 µg/mL) | 0.5 (≈ 0.167 µg/mL) | 0.5 (≈ 0.167 µg/mL) | 1 (≈ 0.335 µg/mL) | 0.5 (≈ 0.167 µg/mL) | 2 (≈ 0.67 µg/mL) | 16 (≈ 5.36 µg/mL) | 0.5 (≈ 0.167 µg/mL) | 4 (≈ 1.34 µg/mL)
3 | CCCCN1C(=O)/C(=N\Nc2nccs2)c2cc([N+](=O)[O-])ccc21 | 512 (≈ 177 µg/mL) | 512 (≈ 177 µg/mL) | 512 (≈ 177 µg/mL) | 512 (≈ 177 µg/mL) | 512 (≈ 177 µg/mL) | 512 (≈ 177 µg/mL) | 512 (≈ 177 µg/mL) | 512 (≈ 177 µg/mL) | 512 (≈ 177 µg/mL) | 512 (≈ 177 µg/mL) | 0.5 (≈ 0.173 µg/mL) | 512 (≈ 177 µg/mL) | 512 (≈ 177 µg/mL) | 512 (≈ 177 µg/mL) | 512 (≈ 177 µg/mL) | 512 (≈ 177 µg/mL)
4 | O=C1/C(=N\Nc2nccs2)c2ccccc2N1Cc1ccc(Cl)cc1 | 64 (≈ 23.6 µg/mL) | 64 (≈ 23.6 µg/mL) | 4 (≈ 1.48 µg/mL) | 4 (≈ 1.48 µg/mL) | 4 (≈ 1.48 µg/mL) | 32 (≈ 11.8 µg/mL) | 128 (≈ 47.2 µg/mL) | 32 (≈ 11.8 µg/mL) | 16 (≈ 5.9 µg/mL) | 128 (≈ 47.2 µg/mL) | 64 (≈ 23.6 µg/mL) | 16 (≈ 5.9 µg/mL) | 32 (≈ 11.8 µg/mL) | 16 (≈ 5.9 µg/mL) | 4 (≈ 1.48 µg/mL) | 16 (≈ 5.9 µg/mL)
5 | CCCCN1C(=O)/C(=N\Nc2nc(C)cs2)c2ccccc21 | 2 (≈ 0.629 µg/mL) | 16 (≈ 5.03 µg/mL) | 32 (≈ 10.1 µg/mL) | 8 (≈ 2.52 µg/mL) | 32 (≈ 10.1 µg/mL) | 4 (≈ 1.26 µg/mL) | 16 (≈ 5.03 µg/mL) | 4 (≈ 1.26 µg/mL) | 1 (≈ 0.314 µg/mL) | 512 (≈ 161 µg/mL) | 4 (≈ 1.26 µg/mL) | 256 (≈ 80.5 µg/mL) | 1 (≈ 0.314 µg/mL) | 4 (≈ 1.26 µg/mL) | 256 (≈ 80.5 µg/mL) | 64 (≈ 20.1 µg/mL)
